Results as given in patent publication US20170333532A1, “ADP'ASE-ENHANCED APYRASE THERAPY FOR WOUNDS, MICROBIAL INFECTION, SEPSIS, AND HETEROTOPIC OSSIFICATION” (APT THERAPEUTICS, INC, priority 2014, published 2017).

Key:
Assay type in all cases: cell-based
[1] = system: Burkholderia cepacia GIIIb AU0055; experiment: Killing of Burkholderia cepacia GIIIb AU0055 by colistin with Apyrase Agent, CFU count; details: colistin at less than 10 μg/ml, with Apyrase Agent 2 U/ml or alone
Description: (§1) In this Example (and in subsequent Examples), the colistin is colistin sulfate salt, catalog number C4461 from Sigma-Aldrich (St. Louis, Mo.) and the apyrase is catalog number M0393L from New England BioLabs Inc. (Ipswich, Mass.).
(§2) Burkholderia cepacia GIIIb AU0055 is grown in the presence of combinations of 0 and 2 U/ml of Apyrase Agent and approximately 0 to 20 μg/ml of colistin. After incubation, the numbers of viable cells are determined by counting the colony forming units (CFU) on the plate (data provided as CFU/ml). Apyrase Agent improves the efficiency of killing Burkholderia cepacia GIIIb AU0055 by colistin. Apyrase Agent increases the effectiveness of colistin at less than 10 μg/ml such that less than 10 to 100 CFU/ml are detected relative to greater than 10^4 to 10^5 in the presence of colistin alone at the same concentrations.

[2] = system: Burkholderia multivorans AU0801; experiment: Killing of Burkholderia multivorans AU0801 by colistin with Apyrase Agent, CFU count; details: colistin at less than 10 μg/ml, with Apyrase Agent 2 U/ml or alone
Description: as §1
as §2, with “multivorans AU0801” for “cepacia GIIIb AU0055”, “10^5” for “10^4”, “10^6” for “10^5”

[3] = system: Burkholderia dolosa AU0589; experiment: Killing of Burkholderia dolosa AU0589 by colistin with Apyrase Agent, CFU count; details: colistin at less than 20 μg/ml, with Apyrase Agent 2 U/ml or alone
Description: as §1
(§3) Burkholderia dolosa AU0589 is grown in the presence of combinations of 0 and 2 U/ml of Apyrase Agent and approximately 0 to 20 μg/ml of colistin. After incubation, the numbers of viable cells are determined by counting the colony forming units (CFU) on the plate (data provided as CFU/ml). Apyrase Agent improves the efficiency of killing Burkholderia dolosa AU0589 by colistin. Apyrase Agent increases the effectiveness of colistin at less than 20 μg/ml such that less than 10 to 100 CFU/ml are detected relative to greater than 10^6 to 10^7 in the presence of colistin alone at the same concentrations.

[4] = system: Burkholderia cepacia AU1114; experiment: Killing of Burkholderia cepacia AU1114 by colistin with Apyrase Agent, CFU count; details: colistin at less than 20 μg/ml, with Apyrase Agent 2 U/ml or alone
Description: as §1
(§4) Burkholderia cepacia AU1114 is grown in the presence of combinations of 0 and 2 U/ml of Apyrase Agent and approximately 0 to 20 μg/ml of colistin. After incubation, the numbers of viable cells are determined by counting the colony forming units (CFU) on the plate (data provided as CFU/ml). Apyrase Agent improves the efficiency of killing Burkholderia cepacia AU1114 by colistin. Apyrase Agent increases the effectiveness of colistin at less than 20 μg/ml such that less than 10 to 100 CFU/ml are detected relative to greater than 10^5 to 10^6 in the presence of colistin alone at the same concentrations.

[5] = system: Burkholderia cepacia GUIa AU0019; experiment: Killing of Burkholderia cepacia GUIa AU0019 by colistin with Apyrase Agent, CFU count; details: colistin at less than 10 μg/ml, with Apyrase Agent 2 U/ml or alone
Description: as §1
as §4, with “cepacia GUIa AU0019” for “cepacia AU1114”, “than 10” for “than 20”

[6] = system: E. coli strain K12; experiment: Effect of colistin, Apyrase Agent and combinations on E. coli growth curve
Description: The effect of colistin, Apyrase agent, and combinations thereof were examined on E. coli growth.
E. coli strain K12 was cultivated to a concentration of about 0.1 OD (A600 nm).
The effect of colistin on E. coli growth. Replicate cultures were cultivated in the presence of colistin (at a concentration of 0.25 μg/ml) and various amounts of additional Apyrase Agent buffer (Tris-biffered saline; 1, 3, 10, or 30 μL).
The effect of Apyrase Agent on E. coli growth. Replicate cultures were cultivated in the presence of Apyrase Agent at various concentrations (i.e. 1, 3, 10, or 30 U/ml).
The effect of a combination of colistin and Apyrase Agent on E. coli growth. Replicate cultures were cultivated in the presence of colistin (at a concentration of […]) combined with Apyrase Agent at various concentrations (namely 1, 3, 10, or 30 U/ml).

[7] = system: A. baumannii strain VBA9; experiment: Killing of colistin-resistant A. baumannii VBA9 by colistin with Apyrase Agent, CFU count; details: colistin at less than 10-15 μg/ml, with Apyrase Agent 2 U/ml or alone
Description: as §1
as §3, with “Approximately 10^5 to 10^6 CFU/ml of the colistin-resistant A. baumannii strain VBA9 is” for “Burkholderia dolosa AU0589 is”, “to 32” for “to 20”, “killing A. baumannii strain VBA9” for “killing Burkholderia dolosa AU0589”, “than 10-15” for “than 20”, “colistin alone.” for “colistin alone at the same concentrations.”

colistin sulfate salt
numbers of viable cells (CFU) [1]: 10^4 to 10^5 CFU/ml
numbers of viable cells (CFU) [2]: 10^5 to 10^6 CFU/ml
numbers of viable cells (CFU) [3]: 10^6 to 10^7 CFU/ml
numbers of viable cells (CFU) [4]: 10^5 to 10^6 CFU/ml
numbers of viable cells (CFU) [5]: 10^5 to 10^6 CFU/ml
effect on E coli growth ([6]; colistin 0.25 μg/ml plus Apyrase Agent buffer 1, 3, 10, or 30 μL, 24 hour period, FIG. 1): no effect
effect on E. coli growth ([6]; colistin 0.25 mg/ml alone or combined with Apyrase Agent 1, 3, 10, or 30 U/ml, FIG. 3): negligible effect
numbers of viable cells (CFU) [7]: 10^6 to 10^7 CFU/ml
